Measured values as given in patent US20240246942A1, “KINASE INHIBITORS FOR THE TREATMENT OF NEURODEGENERATIVE DISEASES” (priority 2020, published 2024).

How the values were obtained:
Assay in all cases: biochemical
[1] = molecular target: T1, panel of 374 wild-type kinases (Homo sapiens, UniProt O14733); details: read-out: % Enzyme Activity (relative to DMSO controls), MKK7
T1 construct: purchased Reaction Biology Corporation
T1 sequence (O14733 1-419): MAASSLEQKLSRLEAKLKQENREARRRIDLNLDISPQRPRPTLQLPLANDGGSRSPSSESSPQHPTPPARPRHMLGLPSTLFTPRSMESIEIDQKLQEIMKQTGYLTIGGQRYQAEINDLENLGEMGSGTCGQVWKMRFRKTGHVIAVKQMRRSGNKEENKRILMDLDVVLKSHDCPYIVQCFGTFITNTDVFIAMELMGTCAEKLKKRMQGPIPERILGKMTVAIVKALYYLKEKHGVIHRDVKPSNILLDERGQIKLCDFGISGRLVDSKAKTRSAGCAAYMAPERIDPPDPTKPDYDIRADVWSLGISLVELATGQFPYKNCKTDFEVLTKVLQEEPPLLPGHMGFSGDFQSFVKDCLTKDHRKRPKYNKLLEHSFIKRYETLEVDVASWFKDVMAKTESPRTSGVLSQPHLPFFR

[2] = molecular target: T2, panel of 374 wild-type kinases (Homo sapiens, UniProt O15530); details: read-out: % Enzyme Activity (relative to DMSO controls), kinase PDK1/PDPK1
T2 construct: purchased Reaction Biology Corporation
T2 sequence (O15530 1-556): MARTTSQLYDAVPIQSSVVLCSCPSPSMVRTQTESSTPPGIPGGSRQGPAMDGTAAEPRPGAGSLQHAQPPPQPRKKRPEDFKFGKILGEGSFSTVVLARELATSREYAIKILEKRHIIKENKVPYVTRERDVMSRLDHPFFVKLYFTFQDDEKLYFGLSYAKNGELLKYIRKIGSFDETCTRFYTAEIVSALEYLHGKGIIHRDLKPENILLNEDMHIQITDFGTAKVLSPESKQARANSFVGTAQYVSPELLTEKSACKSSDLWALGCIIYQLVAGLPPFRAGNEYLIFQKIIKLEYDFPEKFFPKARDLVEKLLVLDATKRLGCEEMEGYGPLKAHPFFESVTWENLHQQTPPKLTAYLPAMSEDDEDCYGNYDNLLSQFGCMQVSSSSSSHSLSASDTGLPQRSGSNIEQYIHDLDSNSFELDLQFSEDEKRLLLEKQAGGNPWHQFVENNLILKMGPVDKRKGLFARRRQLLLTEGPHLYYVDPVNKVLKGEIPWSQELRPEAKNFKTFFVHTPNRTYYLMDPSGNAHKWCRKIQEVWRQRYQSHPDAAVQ

[3] = molecular target: T3, panel of 374 wild-type kinases (Homo sapiens, UniProt Q04771); details: read-out: % Enzyme Activity (relative to DMSO controls), ALK2/ACVR1
T3 construct: purchased Reaction Biology Corporation
T3 sequence (Q04771 21-509): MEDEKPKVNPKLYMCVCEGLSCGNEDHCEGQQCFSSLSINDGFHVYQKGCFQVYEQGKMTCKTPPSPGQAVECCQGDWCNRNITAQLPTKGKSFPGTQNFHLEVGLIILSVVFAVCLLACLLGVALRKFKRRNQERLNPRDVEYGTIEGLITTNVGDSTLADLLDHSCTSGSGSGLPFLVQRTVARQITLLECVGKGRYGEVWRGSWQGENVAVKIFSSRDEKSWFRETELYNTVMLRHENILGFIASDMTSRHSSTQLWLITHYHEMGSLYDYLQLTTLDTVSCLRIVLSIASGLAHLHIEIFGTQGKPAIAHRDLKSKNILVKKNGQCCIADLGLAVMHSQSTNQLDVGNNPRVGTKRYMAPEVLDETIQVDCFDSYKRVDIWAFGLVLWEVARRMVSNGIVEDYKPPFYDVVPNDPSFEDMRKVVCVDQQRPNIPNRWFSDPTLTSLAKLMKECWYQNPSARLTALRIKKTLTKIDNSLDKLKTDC

[4] = molecular target: T4, panel of 374 wild-type kinases (Homo sapiens, UniProt Q9UKI8); details: read-out: % Enzyme Activity (relative to DMSO controls), kinase TLK1
T4 construct: purchased Reaction Biology Corporation
T4 sequence (Q9UKI8 1-766): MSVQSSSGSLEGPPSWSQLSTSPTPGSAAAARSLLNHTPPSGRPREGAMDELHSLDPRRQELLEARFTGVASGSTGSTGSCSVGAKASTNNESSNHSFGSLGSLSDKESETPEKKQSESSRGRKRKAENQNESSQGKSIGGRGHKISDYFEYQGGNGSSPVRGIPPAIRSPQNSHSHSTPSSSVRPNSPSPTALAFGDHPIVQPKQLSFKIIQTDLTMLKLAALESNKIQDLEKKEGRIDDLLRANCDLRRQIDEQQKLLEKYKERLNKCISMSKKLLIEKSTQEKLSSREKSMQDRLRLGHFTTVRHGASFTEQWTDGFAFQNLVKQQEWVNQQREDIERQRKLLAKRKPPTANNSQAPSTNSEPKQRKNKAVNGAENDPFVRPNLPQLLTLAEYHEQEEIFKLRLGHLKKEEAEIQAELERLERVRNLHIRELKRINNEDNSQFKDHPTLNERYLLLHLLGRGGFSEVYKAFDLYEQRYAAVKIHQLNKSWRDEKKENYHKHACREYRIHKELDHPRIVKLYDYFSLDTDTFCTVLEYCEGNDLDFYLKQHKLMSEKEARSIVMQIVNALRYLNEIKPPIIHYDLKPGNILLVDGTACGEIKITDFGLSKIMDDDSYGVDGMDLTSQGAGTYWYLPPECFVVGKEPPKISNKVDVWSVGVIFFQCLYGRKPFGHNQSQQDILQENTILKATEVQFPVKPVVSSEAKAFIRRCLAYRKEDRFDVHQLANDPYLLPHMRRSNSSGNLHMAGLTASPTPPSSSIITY

[5] = molecular target: T5, panel of 374 wild-type kinases (Homo sapiens, UniProt Q9UQM7); details: read-out: % Enzyme Activity (relative to DMSO controls), CAMK2a
T5 construct: purchased Reaction Biology Corporation
T5 sequence (Q9UQM7 whole entry): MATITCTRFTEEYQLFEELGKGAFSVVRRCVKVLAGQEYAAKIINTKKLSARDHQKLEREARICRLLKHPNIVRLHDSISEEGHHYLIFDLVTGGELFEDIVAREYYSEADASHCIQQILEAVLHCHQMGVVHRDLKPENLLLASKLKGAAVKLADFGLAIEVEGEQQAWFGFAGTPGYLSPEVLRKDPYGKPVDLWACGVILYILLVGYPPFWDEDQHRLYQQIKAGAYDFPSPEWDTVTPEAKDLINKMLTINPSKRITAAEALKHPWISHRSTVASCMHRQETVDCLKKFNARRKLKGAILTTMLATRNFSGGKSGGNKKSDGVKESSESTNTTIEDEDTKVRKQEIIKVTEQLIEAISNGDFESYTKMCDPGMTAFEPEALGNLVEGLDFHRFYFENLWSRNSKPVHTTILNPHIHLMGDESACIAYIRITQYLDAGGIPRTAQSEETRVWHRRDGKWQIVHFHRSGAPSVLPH

Row | Structure (SMILES) | remaining activity at 10 µM ([1]; 10 uM) | remaining activity at 10 µM ([2]; 10 uM) | remaining activity at 10 µM ([3]; 10 uM) | remaining activity at 10 µM ([4]; 10 uM) | remaining activity at 10 µM ([5]; 10 uM) | remaining activity at 5 µM [1] | remaining activity at 5 µM [2] | remaining activity at 5 µM [3] | remaining activity at 5 µM [4] | remaining activity at 5 µM [5]
1 | Cc1sc(C(=O)NC2COC2)cc1-n1cc(NC(=O)Nc2c(F)cccc2Cl)cn1 [Compound 27, 4-(4-(3-(2-chloro-6-fluorophenyl)ureido)-1H-pyrazol-1-yl)-5-methyl-N-(oxetan-3-yl)thiophene-2-carboxamide] | 120% | 99.2% | 108% | 105% | 99.7% | – | – | – | – | –
2 | O=C(Nc1cnn(-c2csc(C(=O)NC3COC3)c2)c1)Nc1c(F)cccc1Cl [Compound 25, 4-(4-(3-(2-chloro-6-fluorophenyl)ureido)-1H-pyrazol-1-yl)-N-(oxetan-3-yl)thiophene-2-carboxamide] | – | – | – | – | – | 135% | 99.6% | 95.7% | 53.4% | 99.4%
3 | O=C(Nc1cnn(-c2csc(C(=O)NC3COC3)c2)c1)Nc1ccccc1Cl [Compound 17, 4-(4-(3-(2-chlorophenyl)ureido)-1H-pyrazol-1-yl)-N-(oxetan-3-yl)thiophene-2-carboxamide] | – | – | – | – | – | 112% | 101% | 105% | 105% | 100%
